Test results: US20230218652A1, “ANTIFUNGAL PRODRUGS” (CENTRE NATIONAL DE LA RECHERCHE SCIENTIFIQUE, priority 2020, published 2023)
“Also recorded” adds a separate entry of the source. Where two headings read alike, the source gives them in different places. Blank lines part the entries; values can stand above or below the molecule they belong to.

What was measured:
HeLa cells = assay: Human cells cytotoxicity, HeLa; type: cell-based; settings: for IC50: HeLa cell line
Description: (§1) Half maximal inhibitory concentration (IC50) required to inhibit 50% of the in vitro cell growth or viability were determined with broth microdilution method according to the European committee on antimicrobial susceptibility testing recommendations (protocols E.DEF 7.3.1 for Candida spp.) and according to a certified internal procedure to the laboratory IICiMed (for Leishmania spp.) (Le Pape, et al. Acta Parasitologica 2002, 47, 79-81).
(§2) The different strains, isolates and cell lines used are listed below: • Candida albicans clinical strain (IICiMed number CAAL93) • Candida albicans clinical strain (IICiMed number CAAL121) • Candida albicans reference strain SC5314 (IICiMed number CAAL146) • Leishmania major reference isolate MHOM/IL/81/BNI (IICiMed number LEMA1) • A549 cell line reference ATCC® CCL-185 (carcinoma epithelial cells from lung) • HeLa cell line reference
(§3) Growth or cell viability was performed on flat-bottomed microplate, firstly appreciated by visual reading and always confirmed using a Bio-Rad iMark microplate absorbance reader to measure the absorbance of the plate at 595 nm or using a resazurin salt cell viability assay with a Packard fluorocount microplate reader BF10000 with halogen light source to measure the fluorescence at 590 nm after excitation at 530 nm. Results represent the mean (±the standard error of the mean SEM if available) calculated from at least two independent experiments performed each in triplicate on one or several strains. The values are expressed with the corresponding pathogens and are represented in μM.

[1] = tested on: Candida albicans (blastospores); assay: Antifungal activity in vitro, broth microdilution (blastospores); type: cell-based; settings: mean ± SEM
Description: as §1, with “79-81). […]” for “79-81).”
as §3, with “The values are expressed with the corresponding pathogens and are represented in μM.” left out

Cryptococcus gattii = assay: Antifungal activity in vitro; type: cell-based
Description: as §1, §3

Cryptococcus neoformans [2] = assay: Antifungal activity in vitro; type: cell-based
Description: as §1, §3

[3] = tested on: Leishmania major (amastigote); assay: Antiparasitic activity in vitro (intracellular amastigote); type: cell-based; settings: intracellular amastigotes
Description: as §1, with “79-81). […]” for “79-81).”
as §3, with “The values are expressed with the corresponding pathogens and are represented in μM.” left out

[4] = tested on: Leishmania major (promastigote); assay: Antiparasitic activity in vitro (promastigote); type: cell-based; settings: mean ± SEM
Description: as §1, with “79-81). […]” for “79-81).”
as §3, with “The values are expressed with the corresponding pathogens and are represented in μM.” left out

Cr. gattii = assay: In vivo anti-Cryptococcus activity in Galleria mellonella model (Cr. gattii)
Description: (§4) This model also constitutes a screening model and a good alternative to the traditional studies on murine models for the evaluation of the activity of antifungal molecules. The AmB prodrug of the invention (Compound 1) was evaluated for its antifungal efficacy against Cryptococcus neoformans and Cr. gattii. […] In the absence of treatment, all larvae died after 6 days and 5 days, respectively. For Cryptococcus neoformans, at a dose of 2 mg·kg-1, amphotericin B led to 50% survival and its prodrug was also effective with a percentage survival of 30% at an equivalent dose.
In the case of Cr. gattii, amphotericin B and the prodrug led to 30% and 20% survival respectively.

Galleria mellonella = assay: Toxicity on the Galleria mellonella model; type: in vivo; settings: uninfected larvae, dose 2 mg·kg-1
Description: The larval model represents a rapid and practical tool for assessing the intrinsic toxicity of an active substance. See Le Pape et al, 2019, Int J Infect Dis. 2019 April; 81:85-90 for more details concerning the model. The larvae were incubated with AmB, AmB prodrug (Compound 1) and vehicle. At the dose of 2 mg·kg-1, AmB was very toxic leading to a 40% survival of the treated group. In comparison, at an equivalent dose, its prodrug was much less toxic with a percentage survival of 80%.

Cryptococcus neoformans [5] = assay: In vivo anti-Cryptococcus activity in Galleria mellonella model (C. neoformans); settings: dose 2 mg·kg-1
Description: as §4

[6] = tested on: Candida albicans (filamented yeasts); assay: Antifungal activity in vitro, broth microdilution (filamented yeasts); type: cell-based; settings: mean ± SEM
Description: as §1, with “79-81). […]” for “79-81).”
as §3, with “The values are expressed with the corresponding pathogens and are represented in μM.” left out

[7] = Human cells cytotoxicity, HeLa; type: cell-based; settings: human, HeLa cells; HeLa cell line
Description: as §1, §2, §3

[8] = tested on: C. albicans blastoconidia; assay: Mouse model of C. albicans blastoconidia infection; type: in vivo, mice; settings: 1 mg/kg i.p. once daily for 3 days, listed as AmB prodrug
Description: Mice were immunosuppressed by subcutaneous injection of 30 mg/kg prednisolone one day before challenge. On day 0, mice were infected intravenously C. albicans blastoconidia. One hour after infection, mice were treated intraperitoneally once daily with 1 mg/kg body weight of Fungizone®, Ambisome® and AmB prodrug (Compound 1, FIG. 1A) for 3 consecutive days. The control group received sterile distillated water (vehicle). Survival was monitored for 14 days post inoculation. Differences in cohorts were analyzed by the log-rank test. On day 14, all mice were euthanized and their kidneys were excised and weighed. Tissues were homogenized and serially diluted 10- to 1000-fold in sterile saline, then plated onto Sabouraud dextrose agar and incubated for 48 h to determine the number of CFUs. Tissue fungal burden was expressed as average log CFUs/gram of tissue. Differences in mean CFUs in kidneys were compared with the vehicle control using a one-way ANOVA with a post-hoc Tukey test. A P value of <0.05 was considered statistically significant.

A549 = assay: Human cells cytotoxicity, A549; type: cell-based; settings: pneumocyte line A549
Description: as §1, with “79-81). […]” for “79-81).”
as §3, with “The values are expressed with the corresponding pathogens and are represented in μM.” left out

[9] = Human cells cytotoxicity, A549; type: cell-based; settings: human, A549 cells (ATCC CCL-185, lung carcinoma epithelial cells), pneumocyte line A549
Description: as §1, with “79-81). […]” for “79-81).”
as §3, with “The values are expressed with the corresponding pathogens and are represented in μM.” left out

[10] = Human cells cytotoxicity, hPBMC; type: cell-based; settings: human peripheral blood mononuclear cells (hPBMC); human PBMC
[11] = Aqueous stability in the absence of enzyme; type: physicochemical; settings: for aqueous stability (in words): aqueous medium/buffer, 37° C., absence of the enzyme
Description: Enzymatic Release and Aqueous Stability In vitro enzymatic hydrolysis was carried out with commercial β-N-acetylhexosaminidase from Canavalia ensiformis E.C. 3.2.1.52 (22.8 units·mg^−1 protein, suspension in 2.5 M ammonium sulfate, pH 7.0). Using a VWR® Cooling Thermal Shake Touch and monitoring by analytical LC. Prodrug 1 was incubated with the enzyme according to the table below: […]

SMILES: C[C@@H]1[C@H](O)[C@@H](C)/C=C/C=C/C=C/C=C/C=C/C=C/C=C/[C@H](O[C@@H]2O[C@H](C)[C@@H](O)[C@H](N)[C@@H]2O)C[C@@H]2O[C@](O)(C[C@@H](O)C[C@@H](O)[C@H](O)CC[C@@H](O)C[C@@H](O)CC(=O)O[C@H]1C)C[C@H](O)[C@H]2C(=O)O [Amphotericin B, amphotericin B, reference compound]
IC50 (HeLa cells): 23.29 ± 0.11 µM
IC50 (HeLa cells; listed as AmB): ~23 µM
IC50 [1]: 0.36 ± 0.04 µM
IC50 (Cryptococcus gattii): 0.04 µM
IC50 (Cryptococcus neoformans [2]): 0.03 µM
IC50 [3]: < 0.1 µM
IC50 [4]: 0.31 ± 0.02 µM
survival, larvae infected with Cr. gattii (Cr. gattii): 30%
survival of the treated group (toxicity) (Galleria mellonella): 40%
percentage survival, larvae infected with Cryptococcus neoformans (Cryptococcus neoformans [5]): 50%
IC50 [6]: 0.31 ± 0.01 µM

IC50 ([1]; Candida albicans): 0.43 ± 0.02 µM
IC50 (Cryptococcus gattii; Cryptococcus gattii): 0.6 µM
IC50 (Cryptococcus neoformans [2]; Cryptococcus neoformans): 0.25 µM
IC50 ([3]; Leishmania major): < 0.1 µM
IC50 ([4]; Leishmania major): 0.27 ± 0.06 µM
aqueous stability (in words) ([11]; listed as AmB prodrug): stable
aqueous stability (in words) ([11]; listed as prodrug): stable
aqueous stability (in words) ([11]; listed as prodrug 1): good aqueous stability
half-life ([11]; aqueous solution without enzyme, aqueous, pH 7.4, 37° C., read-out: t1/2 aq, pH 7.4, 37° C.): > 24 h
IC50 ([6]; Candida albicans): 0.42 ± 0.01 µM
SMILES: CC(=O)N[C@H]1[C@H](Oc2ccc(COC(=O)N[C@@H]3[C@H](O)[C@H](O[C@H]4/C=C/C=C/C=C/C=C/C=C/C=C/C=C/[C@H](C)[C@@H](O)[C@@H](C)[C@H](C)OC(=O)C[C@H](O)C[C@H](O)CC[C@@H](O)[C@H](O)C[C@H](O)C[C@]5(O)C[C@H](O)[C@@H](C(=O)O)[C@H](C4)O5)O[C@H](C)[C@H]3O)cc2[N+](=O)[O-])O[C@H](CO)[C@@H](O)[C@@H]1O [Compound 1]
toxicity on HELA cells (in words) (HeLa cells): does not exhibit any significant toxicity
IC50 [7]: > 100 µM
fungal burden of the kidney ([8]; day 14, vs control group): significantly reduction of the burden; also recorded: significant decrease in the kidney fungal load
survival ([8]; immunosuppressed mice, 14 days monitoring, vs vehicle, 1 mg/kg): statically improved survival; also recorded: significant improvement in survival
IC50 (A549): > 100 µM
IC50 [9]: > 50 µM
IC50 [10]: > 50 µM
survival, larvae infected with Cr. gattii (Cr. gattii): 20%
survival of the treated group (toxicity) (Galleria mellonella): 80%
percentage survival, larvae infected with Cryptococcus neoformans (Cryptococcus neoformans [5]): 30%
